From patent US9708314B2, “Heterocyclic amide compound” (NISSAN CHEMICAL INDUSTRIES, LTD., priority 2013, dated 2017)

Columns and labels:
Assay type in all cases: in vivo
Lolium multiflorum Lam. = experiment: Test Example 4: herbicidal effect by application to foliage (diluvial soil, plastic box); details: Application herbicide amount 320 g/ha; foliage application
In short: (§1)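 Greenhouse plants (25° C. to 30° C., 14 d, diluvial soil) receive a foliar spray of water-diluted emulsifiable formulation at defined g/ha. Grading after 3 weeks uses a six-step herbicidal-ratio scale, with 4 covering 70% to <90% and 1 covering 5% to <20%.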

Avena fatua = experiment: as above; details: Application herbicide amount 320 g/ha; foliage application
In short: as §1

Amaranthus retroflexus = experiment: as above; details: Application herbicide amount 320 g/ha; foliage application
In short: as §1

Galium spurium = experiment: as above; details: Application herbicide amount 320 g/ha; foliage application
In short: as §1

Stellaria media = experiment: as above; details: Application herbicide amount 320 g/ha; foliage application
In short: as §1

Digitaria ciliaris = experiment: as above; details: Application herbicide amount 320 g/ha; foliage application
In short: as §1

Chenopodium album = experiment: as above; details: Application herbicide amount 320 g/ha; foliage application
In short: as §1

Veronica persica = experiment: as above; details: Application herbicide amount 320 g/ha; foliage application
In short: as §1

Alopecurus myosuroides = experiment: as above; details: Application herbicide amount 320 g/ha; foliage application
In short: as §1

Apera spica-venti. = experiment: as above; details: Application herbicide amount 320 g/ha; foliage application
In short: as §1

Abutilon theophrasti = experiment: as above; details: Application herbicide amount 320 g/ha; foliage application
In short: as §1

[1] = test system: Echinochloa crus-galli var. crus-galli; experiment: as above; details: Application herbicide amount 320 g/ha; foliage application
In short: as §1

Scirpus juncoides = experiment: Test Example 2: herbicidal activity, application during weed generation in submerged conditions; details: Eighteenth Table; application herbicide amount 320 g/ha
In short: (§2)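 Seeds were sown together in alluvial soil kept under 4 cm of water and grown at 25 °C to 30 °C. Once plants reached the one- to two-leaf stage, the diluted emulsion was applied to the water surface at a predetermined g/ha amount, and effects were rated 0–5 after three weeks.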

[2] = test system: Echinochloa oryzacola Vasing.; experiment: as above; details: Eighteenth Table; application herbicide amount 320 g/ha
In short: as §2

Monochoria vaginalis = experiment: as above; details: Eighteenth Table; application herbicide amount 320 g/ha
In short: as §2

[3] = test system: Beta vulgaris ssp. vulgaris; experiment: Test Example 4: effect on crop by application to foliage (diluvial soil, plastic box); details: Application herbicide amount 320 g/ha; foliage application
In short: as §1

Brassica campestris L. = experiment: as above; details: Application herbicide amount 320 g/ha; foliage application
In short: as §1

Triticum aestivum = experiment: as above; details: Application herbicide amount 320 g/ha; foliage application
In short: as §1

Zea mays = experiment: as above; details: Application herbicide amount 320 g/ha; foliage application
In short: as §1

Glycine max = experiment: as above; details: Application herbicide amount 320 g/ha; foliage application
In short: as §1

Compound	K (Lolium multiflorum Lam.) herbicidal effect grade (Lolium multiflorum Lam.)	I (Avena fatua) herbicidal effect grade (Avena fatua)	N (Amaranthus retroflexus) herbicidal effect grade (Amaranthus retroflexus)	Q (Galium spurium) herbicidal effect grade (Galium spurium)	P (Stellaria media) herbicidal effect grade (Stellaria media)	F (Digitaria ciliaris) herbicidal effect grade (Digitaria ciliaris)	O (Chenopodium album) herbicidal effect grade (Chenopodium album)	R (Veronica persica) herbicidal effect grade (Veronica persica)	J (Alopecurus myosuroides) herbicidal effect grade (Alopecurus myosuroides)	L (Apera spica-venti.) herbicidal effect grade (Apera spica-venti.)	M (Abutilon theophrasti) herbicidal effect grade (Abutilon theophrasti)	H (Echinochloa crus-galli var. crus-galli) herbicidal effect grade [1]	B (Scirpus juncoides) herbicidal ratio grade (Scirpus juncoides)	A (Echinochloa oryzicola Vasing.) herbicidal ratio grade [2]	C (Monochoria vaginalis) herbicidal ratio grade (Monochoria vaginalis)	f (Beta vulgaris ssp. vulgaris) effect on crop grade [3]	g (Brassica campestris L.) effect on crop grade (Brassica campestris L.)	e (Triticum aestivum) effect on crop grade (Triticum aestivum)	c (Zea mays) effect on crop grade (Zea mays)	d (Glycine max) effect on crop grade (Glycine max)
Cc1nnc(NC(=O)c2ccc(C(F)(F)F)n3c(N(C)C4CCCCC4)nnc23)o1 [1-133]	0 (Herbicidal ratio of 5% or less (almost no effect))	0 (Herbicidal ratio of 5% or less (almost no effect))	3 (Herbicidal ratio of 40% or more and less than 70%)	1 (Herbicidal ratio of 5% or more and less than 20%)	4 (Herbicidal ratio of 70% or more and less than 90%)	3 (Herbicidal ratio of 40% or more and less than 70%)	4 (Herbicidal ratio of 70% or more and less than 90%)	2 (Herbicidal ratio of 20% or more and less than 40%)	0 (Herbicidal ratio of 5% or less (almost no effect))	0 (Herbicidal ratio of 5% or less (almost no effect))	3 (Herbicidal ratio of 40% or more and less than 70%)	4 (Herbicidal ratio of 70% or more and less than 90%)	2 (Herbicidal ratio of 20% or more and less than 40%)	2 (Herbicidal ratio of 20% or more and less than 40%)	3 (Herbicidal ratio of 40% or more and less than 70%)	3 (Herbicidal ratio of 40% or more and less than 70%)	0 (Herbicidal ratio of 5% or less (almost no effect))	0 (Herbicidal ratio of 5% or less (almost no effect))	0 (Herbicidal ratio of 5% or less (almost no effect))	3 (Herbicidal ratio of 40% or more and less than 70%)
Cc1nnc(NC(=O)c2ccc(C(F)(F)F)n3c(SCC4OCCO4)nnc23)o1 [1-126]	0 (Herbicidal ratio of 5% or less (almost no effect))	0 (Herbicidal ratio of 5% or less (almost no effect))	3 (Herbicidal ratio of 40% or more and less than 70%)	1 (Herbicidal ratio of 5% or more and less than 20%)	5 (Herbicidal ratio of 90% or more (almost completely withered))	4 (Herbicidal ratio of 70% or more and less than 90%)	5 (Herbicidal ratio of 90% or more (almost completely withered))	4 (Herbicidal ratio of 70% or more and less than 90%)	0 (Herbicidal ratio of 5% or less (almost no effect))	1 (Herbicidal ratio of 5% or more and less than 20%)	3 (Herbicidal ratio of 40% or more and less than 70%)	5 (Herbicidal ratio of 90% or more (almost completely withered))	3 (Herbicidal ratio of 40% or more and less than 70%)	1 (Herbicidal ratio of 5% or more and less than 20%)	3 (Herbicidal ratio of 40% or more and less than 70%)	5 (Herbicidal ratio of 90% or more (almost completely withered))	3 (Herbicidal ratio of 40% or more and less than 70%)	0 (Herbicidal ratio of 5% or less (almost no effect))	1 (Herbicidal ratio of 5% or more and less than 20%)	2 (Herbicidal ratio of 20% or more and less than 40%)
O=C(Nc1nnco1)c1ccc(C(F)(F)F)n2c(N3CCCC3)nnc12 [1-139]	1 (Herbicidal ratio of 5% or more and less than 20%)	1 (Herbicidal ratio of 5% or more and less than 20%)	4 (Herbicidal ratio of 70% or more and less than 90%)	2 (Herbicidal ratio of 20% or more and less than 40%)	5 (Herbicidal ratio of 90% or more (almost completely withered))	5 (Herbicidal ratio of 90% or more (almost completely withered))	5 (Herbicidal ratio of 90% or more (almost completely withered))	5 (Herbicidal ratio of 90% or more (almost completely withered))	0 (Herbicidal ratio of 5% or less (almost no effect))	0 (Herbicidal ratio of 5% or less (almost no effect))	3 (Herbicidal ratio of 40% or more and less than 70%)	5 (Herbicidal ratio of 90% or more (almost completely withered))	3 (Herbicidal ratio of 40% or more and less than 70%)	4 (Herbicidal ratio of 70% or more and less than 90%)	3 (Herbicidal ratio of 40% or more and less than 70%)	5 (Herbicidal ratio of 90% or more (almost completely withered))	4 (Herbicidal ratio of 70% or more and less than 90%)	1 (Herbicidal ratio of 5% or more and less than 20%)	0 (Herbicidal ratio of 5% or less (almost no effect))	3 (Herbicidal ratio of 40% or more and less than 70%)
Cc1nnc(NC(=O)c2ccc(C(F)(F)F)n3c(N4CCCC4)nnc23)o1 [1-136]	0 (Herbicidal ratio of 5% or less (almost no effect))	0 (Herbicidal ratio of 5% or less (almost no effect))	2 (Herbicidal ratio of 20% or more and less than 40%)	0 (Herbicidal ratio of 5% or less (almost no effect))	4 (Herbicidal ratio of 70% or more and less than 90%)	4 (Herbicidal ratio of 70% or more and less than 90%)	5 (Herbicidal ratio of 90% or more (almost completely withered))	3 (Herbicidal ratio of 40% or more and less than 70%)	0 (Herbicidal ratio of 5% or less (almost no effect))	1 (Herbicidal ratio of 5% or more and less than 20%)	3 (Herbicidal ratio of 40% or more and less than 70%)	4 (Herbicidal ratio of 70% or more and less than 90%)	2 (Herbicidal ratio of 20% or more and less than 40%)	0 (Herbicidal ratio of 5% or less (almost no effect))	2 (Herbicidal ratio of 20% or more and less than 40%)	4 (Herbicidal ratio of 70% or more and less than 90%)	0 (Herbicidal ratio of 5% or less (almost no effect))	0 (Herbicidal ratio of 5% or less (almost no effect))	1 (Herbicidal ratio of 5% or more and less than 20%)	3 (Herbicidal ratio of 40% or more and less than 70%)
